Measurements as given in US7786111B2, “Medicaments for the treatment of chronic obstructive pulmonary disease” (Boehringer Ingelheim Pharma GmbH & Co. KG, priority 2002, dated 2010).
Structures can show the parent of a compound that is named as a salt.

| Compound | melting point [°C] |
| --- | --- |
| Cc1cc(CC(C)(C)NCC(O)c2cc(O)cc3c2OCC(=O)N3)ccc1F (centres unmarked) (as salt: hydrochloride) [Example 10, 8-{2-[2-(4-Fluoro-3-methylphenyl)-1,1-dimethylethylamino]-1-hydroxyethyl}-6-hydroxy-4H-benzo[1,4]oxazin-3-one] | 278 to 280 |
| Cc1cc(F)ccc1CC(C)(C)NCC(O)c1cc(O)cc2c1OCC(=O)N2 (centres unmarked) (as salt: hydrochloride) [Example 11, 8-{2-[2-(4-fluoro-2-methylphenyl)-1,1-dimethylethylamino]-1-hydroxyethyl}-6-hydroxy-4H-benzo[1,4]oxazin-3-one] | 278 to 280 |
| CC(C)(Cc1ccc(OCCCC(=O)O)cc1)NCC(O)c1cc(O)cc2c1OCC(=O)N2 (centres unmarked) [Example 16, 4-(4-{2-[2-hydroxy-2-(6-hydroxy-3-oxo-3,4-dihydro-2H-benzo[1,4]oxazin-8-yl)ethylamino]-2-methylpropyl}phenoxy)butyric acid] | 201 to 204 |
| Cc1cc(C)cc(CC(C)(C)NCC(O)c2cc(O)cc3c2OCC(=O)N3)c1 (centres unmarked) (as salt: hydrochloride) [Example 15, 8-{2-[2-(3,5-dimethylphenyl)-1,1-dimethylethylamino]-1-hydroxyethyl}-6-hydroxy-4H-benzo[1,4]oxazin-3-one] | 235 to 238 |
| CC(C)(Cc1ccc(F)cc1F)NCC(O)c1cc(O)cc2c1OCC(=O)N2 (centres unmarked) (as salt: hydrochloride) | 279 to 280 |
